Laboratory results reported in article PMC11374673, “Discovery of isoquinoline sulfonamides as allosteric gyrase inhibitors with activity against fluoroquinolone-resistant bacteria” (Nature Chemistry, 2024).
“Also recorded” adds a separate entry of the source.

Experiments:
E. coli BW25113 = test: Bacterial cytological profiling (BCP); type: cell-based, Escherichia coli; set-up: DAPI total area / DAPI nucleoid area / DIC area / DIC curvature / DIC feret / DIC length / DIC orientation: unit not given here; conditions: for DAPI aspect ratio / DAPI circularity / DAPI nucleoid area / DAPI nucleoids / DAPI perimeter / DAPI roundness / DAPI solidity / DAPI total area / DIC area / DIC aspect ratio / DIC circularity / DIC curvature / DIC feret / DIC length / DIC orientation / DIC perimeter / DIC roundness / DIC sinuosity / DIC solidity / DIC width / Decondensation / DIC angularity / DAPI intensity / SYTOX Green intensity: BCP; for morphological phenotype: BCP microscopy, 6.25 µM; for DIC angularity: 2 h, AMP 12.5, RIF 12.5, TET 6.25, CIP 0.0625, LEI-801 6.25, LEI-800 6.25 µM, average ± SD of 3 replicates; for DAPI intensity / SYTOX Green intensity: standardized to DMSO control
Procedure: Overnight E. coli BW25113 cultures were diluted 1:100 in fresh LB medium in a 100 ml Erlenmeyer flask and incubated at 120 r.p.m. and 37 °C. When OD600 >0.2, the cultures were diluted to OD600 of 0.1 in fresh LB medium with a final volume of 200 µl in a 2 ml Eppendorf tube. The appropriate antibiotic or control treatment was applied and the samples were incubated at 200 r.p.m. and 30 °C for 2 h. Subsequently, 4,6-diamidino-2-phenylindole (DAPI) (2 µg ml^−1), FM4-64 (2 µg ml^−1) and SYTOX Green (0.5 µM) were added to reach the desired concentration and the samples were incubated a further 10 min. The samples were then centrifuged at 3,300g for 50 s and the pellets resuspended in half the original volume. From this suspension, 5 µl was spotted onto a 2.0% agarose pad for microscopy.
Microscopy was performed on a Zeiss Axio Observer Z1/7 inverted microscope.
For the qualitative assessment of the bacterial morphology, the acquired images were first pre-processed in ImageJ (v1.53m)[47]. Thereafter the brightness and contrast were adjusted to allow the clearest visual inspection of the particular phenotype. For the quantitative BCP, DIC images were first pre-processed and then a random forest classifier was trained with Illastik (v1.3.3)[48] to generate a segmented image. These binary masks were then combined together with the original DIC image and processed with the ImageJ plugin MicrobeJ (v 5.13l)[49]. MicrobeJ generated cell outlines and performed measurements on cell shape accordingly. The recorded cell outlines produced by MicrobeJ were exported and used as a guide to characterize the DNA shape within each bacterium using a custom-made ImageJ macro (Appendix II). DAPI and SYTOX Green intensity were measured on raw images in a similar manner. Then, by hand, polygons were drawn that excluded bacteria to determine background intensity. After background correction the intensity was standardized to the DMSO control within the same biological replicate. For PCA, the BCP assay was executed for three independently biological replicates. During each experiment, images were acquired until 24 or more bacteria in total had been observed. Following feature extraction for each replicate, principal component analysis was performed using GraphPad Prism (v9.0.0) using multiple variable analysis with standardized data. Principal components (PCs) were selected based on the per cent of total explained variance (minimum 80%).

[1] = molecular target: T1, E. coli GyrA S97L/GyrB gyrase (Escherichia coli, UniProt P0AES4, S97L); test: Gyrase supercoiling inhibition, GyrA S97L variant; type: biochemical
T1 construct: represents the first full-length E. coli gyrase structure in complex with an intact DNA molecule; 10xHis; 2xStrep (Twin-Strep); made in house
Procedure: (§1) Of this stock solution, 27 µl was aliquoted for each reaction in 1.5 ml Eppendorf tubes and supplemented with 0.6 µl of the appropriate compound dilution or corresponding solvent with a final DMSO concentration of 2%. The reactions were started with 3 µl of enzyme (1 U for WT gyrase retrieved from Inspiralis Limited or 25–30 nM gyrase variants purified in house) in dilution buffer (50 mM Tris–HCl (pH 7.5), 100 mM KCl, 2 mM DTT, 1 mM EDTA and 50% (wt/vol) glycerol) for a final volume of 30 µl. Reactions were run at 37 °C for 30 min and stopped with the addition of 30 µl STEB buffer (40% (wt/vol) sucrose, 100 mM Tris–HCl pH 8, 100 mM EDTA, 0.5 mg ml^−1 bromophenol blue) and 30 µl of a chloroform:isoamyl alcohol solution (24:1 vol/vol). After brief vortexing and centrifugation at 2,300g for 1 min, 20 µl of the aqueous phase was loaded onto 1% (wt/vol) agarose gels in TAE (Tris–acetate […]) gel. The gels were run at 85 V for 2 h followed by staining (15 min) in 1 µg ml^−1 ethidium bromide and destaining (5–10 min) in water. DNA was visualized (602/50, UV Trans, auto optimal exposure) with a ChemiDoc MP (Bio-Rad Laboratories Inc., equipped with ImageLab Touch Software v2.0.0.27) and the percentage of supercoiled DNA relative to the total amount material per lane was determined with ImageLab 6.1 software (Bio-Rad Laboratories Inc.) or ImageJ[47] software. […]

[2] = molecular target: T2, E. coli GyrA S172A/GyrB gyrase (Escherichia coli, UniProt P0AES4, S172A); test: Gyrase supercoiling inhibition, GyrA S172A variant; type: biochemical
T2 construct: represents the first full-length E. coli gyrase structure in complex with an intact DNA molecule; 10xHis; 2xStrep (Twin-Strep); made in house
Procedure: as §1

Which “PCA clustering of 24 BCP features” value (E. coli BW25113) does the source give for `O=S(=O)(NC[C@@H]1CC[C@H](c2ccc(-c3cccnc3)cc2)N1)c1cccc2cnccc12` [LEI-800] here?
The value was “formed a cluster by itself”.

And the DAPI aspect ratio (E. coli BW25113)?
The DAPI aspect ratio was 5.858 ± 1.821.

What about the DAPI circularity (E. coli BW25113) of the same molecule?
Its DAPI circularity is 0.365 ± 0.084.

What about the DAPI nucleoid area (E. coli BW25113) of the same molecule?
The DAPI nucleoid area was 6.481 ± 2.006.

And the DAPI nucleoids (E. coli BW25113)?
The DAPI nucleoids was 1.368 ± 0.202.

And the DAPI perimeter (E. coli BW25113)?
Its DAPI perimeter is 16.318 ± 5.417.

And the DAPI roundness (E. coli BW25113)?
Its DAPI roundness is 0.220 ± 0.035.

And the DAPI solidity (E. coli BW25113)?
Its DAPI solidity is 0.808 ± 0.077.

And the DAPI total area (E. coli BW25113)?
The DAPI total area was 8.438 ± 3.339.

What about the DIC area (E. coli BW25113) of the same molecule?
Its DIC area is 13.636 ± 0.225.

What about the DIC aspect ratio (E. coli BW25113) of the same molecule?
Its DIC aspect ratio is 6.808 ± 0.283.

And the DIC circularity (E. coli BW25113)?
The DIC circularity was 0.292 ± 0.021.

What about the DIC curvature (E. coli BW25113) of the same molecule?
The DIC curvature was 0.034 ± 0.003.

What about the DIC feret (E. coli BW25113) of the same molecule?
Its DIC feret is 11.758 ± 0.377.

What about the DIC length (E. coli BW25113) of the same molecule?
Its DIC length is 11.910 ± 0.403.

And the DIC orientation (E. coli BW25113)?
Its DIC orientation is 88.418 ± 18.119.

And the DIC perimeter (E. coli BW25113)?
Its DIC perimeter is 25.156 ± 0.728.

And the DIC roundness (E. coli BW25113)?
Its DIC roundness is 0.139 ± 0.012.

And the DIC sinuosity (E. coli BW25113)?
Its DIC sinuosity is 1.021 ± 0.003.

And the DIC solidity (E. coli BW25113)?
The DIC solidity was 0.793 ± 0.033.

And the DIC width (E. coli BW25113)?
Its DIC width is 1.163 ± 0.063.

What about the Decondensation (E. coli BW25113) of the same molecule?
The Decondensation was 0.616 ± 0.234.

And the “morphological phenotype” value (E. coli BW25113)?
Its value is “elongation of the bacteria and condensation of the DNA; also recorded: phenotype resembling the CIP and TET morphological profile”.

And the DIC angularity (E. coli BW25113)?
Its DIC angularity is 0.076 ± 0.010.

And the DAPI intensity (E. coli BW25113)?
Its DAPI intensity is 0.513 ± 0.191.

What about the “SYTOX Green intensity” value (E. coli BW25113) of the same molecule?
The value was 2.259 ± 1.119.

And the “supercoiling inhibition of GyrA S97L variant” value [1]?
The value was “highly resistant”.

And the IC50 [2]?
The IC50 was 86 nM.

For `O=S(=O)(NC[C@H]1CC[C@@H](c2ccc(-c3ccc(F)nc3)cc2)N1)c1cccc2cnccc12` [LEI-801], which “PCA clustering of 24 BCP features” value (E. coli BW25113) is on record?
Its value is “clustered with DMSO”.

What about the DAPI aspect ratio (E. coli BW25113) of the same molecule?
The DAPI aspect ratio was 2.179 ± 0.107.

What about the DAPI circularity (E. coli BW25113) of the same molecule?
Its DAPI circularity is 0.723 ± 0.016.

What about the DAPI nucleoid area (E. coli BW25113) of the same molecule?
The DAPI nucleoid area was 2.366 ± 0.636.

What about the DAPI nucleoids (E. coli BW25113) of the same molecule?
The DAPI nucleoids was 1.288 ± 0.064.

And the DAPI perimeter (E. coli BW25113)?
Its DAPI perimeter is 6.375 ± 0.894.

And the DAPI roundness (E. coli BW25113)?
Its DAPI roundness is 0.484 ± 0.024.

And the DAPI solidity (E. coli BW25113)?
Its DAPI solidity is 0.916 ± 0.005.

What about the DAPI total area (E. coli BW25113) of the same molecule?
The DAPI total area was 2.897 ± 0.869.

What about the DIC area (E. coli BW25113) of the same molecule?
The DIC area was 3.335 ± 0.139.

What about the DIC aspect ratio (E. coli BW25113) of the same molecule?
The DIC aspect ratio was 2.661 ± 0.151.

What about the DIC circularity (E. coli BW25113) of the same molecule?
Its DIC circularity is 0.699 ± 0.026.

What about the DIC curvature (E. coli BW25113) of the same molecule?
The DIC curvature was 0.150 ± 0.018.

What about the DIC feret (E. coli BW25113) of the same molecule?
Its DIC feret is 3.227 ± 0.127.

What about the DIC length (E. coli BW25113) of the same molecule?
The DIC length was 3.253 ± 0.128.

What about the DIC orientation (E. coli BW25113) of the same molecule?
Its DIC orientation is 96.714 ± 3.816.

And the DIC perimeter (E. coli BW25113)?
The DIC perimeter was 7.768 ± 0.245.

What about the DIC roundness (E. coli BW25113) of the same molecule?
Its DIC roundness is 0.422 ± 0.025.

And the DIC sinuosity (E. coli BW25113)?
The DIC sinuosity was 1.026 ± 0.005.

And the DIC solidity (E. coli BW25113)?
Its DIC solidity is 0.962 ± 0.004.

And the DIC width (E. coli BW25113)?
The DIC width was 1.085 ± 0.030.

What about the Decondensation (E. coli BW25113) of the same molecule?
Its Decondensation is 0.863 ± 0.226.

What about the “morphological phenotype” value (E. coli BW25113) of the same molecule?
The value was “phenotype that is consistent with the DMSO control”.

And the DIC angularity (E. coli BW25113)?
The DIC angularity was 0.123 ± 0.008.

What about the DAPI intensity (E. coli BW25113) of the same molecule?
Its DAPI intensity is 1.156 ± 0.345.

And the “SYTOX Green intensity” value (E. coli BW25113)?
The value was 1.000 ± 0.284.

And the “supercoiling inhibition of GyrA S97L variant” value [1]?
The value was “highly resistant”.

What about the IC50 [2] of the same molecule?
Its IC50 is 360 nM.
